Test results published in patent US7064141B1, “Method for preventing, treating or inhibiting development of simple retinopathy and preproliferative retinopathy” (Takeda Pharmaceutical Company Limited, priority 1999, dated 2006).

Key:
Retinal VEGF mRNA = Retinal VEGF mRNA of diabetic rats, semi-quantitative RT-PCR; format: in vivo, rat; details: STZ-diabetic SHRSP rats
Description: • Compound 1: (±)-1-(cyclohexyloxycarbonyloxy) ethyl-2-ethoxy-1-[[2′-(1H-tetrazol-5-yl)biphenyl-4-yl]methyl]-1H-benzimidazole-7-carboxylate (Compound 1) Method: Streptozotocin (STZ) was intravenously injected at a dose of 30 mg/kg to 10-week old male rats (Stroke-Prone Spontaneously Hypertensive Rat:SHRSP). When 9 weeks had passed since the injection of STZ, the blood sugar values of the rats were measured. The rats were divided into 3 groups, that is, a group before the administration, a solvent-administered control group and an administered group with the compound 1 (3 mg/kg/day, p.o.). Four weeks after, the blood sugar values and the retinal potentials were measured, and then, the rats were killed by bleeding by discission of the aorta abdominalis under deep ether anesthetization so as to remove the eyeball. A suspension of the compound 1 in a 0.5% methylcellulose-containing physiological saline was orally administered to the rats once a day for 4 weeks. […]
VEGF mRNA in the retina was quantitatively determined as follows. […] The quantity of VEGF mRNA was measured from the extracted RNA by the semi-quantitative RT-PCR process (ABI PRISM 7700: Perkin Elmer) using two kinds of fluorescent probes (FAM: VEGF, and VIC: β-action). The quantity of VEGF mRNA was corrected by the quantity of β-action mRNA and calculated provided that the quantity of VEGF mRNA of SD rat retina was defined as 1.

Diabetic Rats = test: Retinal potential: latency of oscillatory potential peaks of diabetic rats; format: in vivo, rat; details: STZ-diabetic SHRSP rats
Description: • Compound 1: (±)-1-(cyclohexyloxycarbonyloxy) ethyl-2-ethoxy-1-[[2′-(1H-tetrazol-5-yl)biphenyl-4-yl]methyl]-1H-benzimidazole-7-carboxylate (Compound 1) Method: Streptozotocin (STZ) was intravenously injected at a dose of 30 mg/kg to 10-week old male rats (Stroke-Prone Spontaneously Hypertensive Rat:SHRSP). When 9 weeks had passed since the injection of STZ, the blood sugar values of the rats were measured. The rats were divided into 3 groups, that is, a group before the administration, a solvent-administered control group and an administered group with the compound 1 (3 mg/kg/day, p.o.). Four weeks after, the blood sugar values and the retinal potentials were measured, and then, the rats were killed by bleeding by discission of the aorta abdominalis under deep ether anesthetization so as to remove the eyeball. A suspension of the compound 1 in a 0.5% methylcellulose-containing physiological saline was orally administered to the rats once a day for 4 weeks. On the other hand, 23-week old SHRSP rats were used as an untreated group.
The retinal potential was measured by the following method. The subject animal was subjected to dark adaptation in a dark room for 90 to 120 minutes, and then, anesthetized with ketamine hydrochloride (50 mg/kg, i.m.) and immobilized with xylazine (2 mg/kg, i.m.). The limb and the head of the subject animal were fixed with a string. Mydriatic was dropped on the left eyeball to widen the pupil, and a contact lens type electrode was placed on the cornea using a contact lens-wearing auxiliary. A xenon lamp (1.2 joules) was set at a position 10 cm distant in the forward direction from the eye to be tested (the left eye), and light stimuli were controlled by a light stimulator (SLS-3100 manufactured by Nippon Koden K.K.). The retinal potential generated by light stimuli (0.5 Hz, 16 times) was amplified by a Neuropack (MEB-5100 manufactured by Nippon Koden K.K., Low cut 0.5 Hz, and sweeping time: 200 msec). The results were added and averaged. The latency of oscillatory potential peaks (O1, O2 and O3) was counted from the resultant waveforms.

[1] = 3 mg/kg/day p.o. for 4 weeks, n = 4, average ± standard deviation

Structure (SMILES): CCOc1nc2cccc(C(=O)OC(C)OC(=O)OC3CCCCC3)c2n1Cc1ccc(-c2ccccc2-c2nnn[nH]2)cc1 (racemic) [Compound 1, (±)-1-(cyclohexyloxycarbonyloxy) ethyl-2-ethoxy-1-[[2′-(1H-tetrazol-5-yl)biphenyl-4-yl]methyl]-1H-benzimidazole-7-carboxylate]
- Retinal VEGF mRNA (VEGF mRNA of SD rat determined as 1) (Retinal VEGF mRNA; 3 mg/kg/day p.o. for 4 weeks, n = 4, corrected by β-action mRNA, average ± standard deviation): 0.99 ± 0.14
- Quantity of VEGF mRNA in the retinal tissue, in words (Retinal VEGF mRNA; 3 mg/kg/day p.o., 4 weeks): significantly decreased
- Latency of oscillatory potential peak O1 (Diabetic Rats; [1]): 23.81 ± 0.42 ms
- Latency of oscillatory potential peak O2 (Diabetic Rats; [1]): 32.88 ± 1.17 ms
- Latency of oscillatory potential peak O3 (Diabetic Rats; [1]): 43.39 ± 1.86 ms
- Latency of oscillatory potential peaks O1, O2 and O3, in words (Diabetic Rats; 3 mg/kg/day p.o., 4 weeks): latency was reduced in any of the O1, O2 and O3
- Latency of oscillatory potential peak O1 compared with the control group, in words (Diabetic Rats; 3 mg/kg/day p.o., 4 weeks, Dunnett's t Test): significant improvement
